Earlier results on three substances are cited in US7678762B2, “Methods for reducing the risk of hypoglycemia” (DiObex, Inc., priority 2002, dated 2010).

For series [1] the following is noted: relative to normal glucagon.
The conditions of series [2]: relative to normal glucagon. This is another data set of the same source.

As for “glucagon variant with a Phe at position 18: glucagon variant with a Phe at position 18”, the binding affinity in series [1] is 4.7%. For the same substance, the relative potency in series [2] is listed as 0.9%.

As for “variant glucagon Lys 17 and 18, Glu 21: variant glucagon with a Lys substitution at positions 17 and 18 and a Glu substitution at position 21 (Sturm et al.) (HSQGTFTSDYSKYLDSKKAQEFVQWLMNT; Glucagon; UniProt P01275 53-81, looked up, variant R17K R18K D21E)”, in series [1], the binding affinity is 500%. The relative potency in series [2] is recorded as 700%.

Take “variant glucagon amide Lys 17: variant glucagon amide with only a Lys substitution at position 17”: in series [1], the binding affinity is 220%. Moreover, in series [2], the relative potency is given as 230%.
